Among the data in patent publication US8722903B2, “Indazole derivatives for the treatment of HSP9O-induced diseases” (Merck Patent GmbH, priority 2006, dated 2014) are IC50 values, retold here.

Molecules are shown by their SMILES. pIC50: −log10 of the molar value.

The target in this assay is T1, Recombinant human HSP90α (Homo sapiens, UniProt P07900).
T1 construct: host or cells: E. coli
Briefly: Radioligand filter binding test: competitive inhibition of [3H]17AAG binding to HSP90. The following applies: [3H]17AAG 0.08 μM, HSP90 1.5 μg/assay, 22° C., 30 min. The procedure: In the specific case, a radioligand filter binding test is used. The radioligand used here is tritium-labelled 17-allylaminogeldanamycin, [3H]17AAG, This filter binding test allows a targeted search for inhibitors which interfere with the ATP binding site.
Recombinant human HSP90α (E. coli expressed, 95% purity);
HEPES filter buffer (50 mM HEPES, pH 7.0, 5 mM MgCl2, BSA 0.01%) Multiscreen FB (1 μm) filter plate (Millipore, MAFBNOB 50).
The 96-well microtitre filter plates are firstly irrigated and coated with 0.1% of polyethylenimine.
The test is carried out under the following conditions:
Reaction temperature 22° C.
Reaction time: 30 min., shaking at 800 rpm
50 mM HEPES HCl, pH 7.0, 5 mM MgCl2, 0.01% (w/v) of BSA
At the end of the reaction, the supernatant in the filter plate is removed by suction with the aid of a vacuum manifold (Multiscreen Separation System, Millipore), and the filter is washed twice.
The filter plates are then measured in a beta counter (Microbeta, Wallac) with scintillator (Microscint 20, Packard).
“% of control” is determined from the “counts per minutes” values, and the IC-50 value of a compound is calculated therefrom.
A word on the pIC50: it is −log10 of the IC50, conventionally taken in molar units. For the compound `CCCN(C)C(=O)c1cc2c(Cc3ccccc3Cl)n[nH]c2cc1O` [Compound A35, 5-(N-Propyl-N-methylaminocarbonyl)-3-(2-chlorobenzyl)-6-hydroxy-1H-indazole], the pIC50 was 5.00 to 6.00.
The figure for `COCCN(C)C(=O)c1cc2c(Cc3cccc(C)c3)n[nH]c2cc1O` [Compound A37, 5-[N-(2-Methoxyethyl)-N-methylaminocarbonyl]-3-(3-methylbenzyl)-6-hydroxy-1H-indazole] is 5.00 to 6.00; for `CCCN(C)C(=O)c1cc2c(Cc3cccc(C)c3)n[nH]c2cc1O` [Compound A38, 5-(N-Propyl-N-methylaminocarbonyl)-3-(3-methylbenzyl)-6-hydroxy-1H-indazole] it is 5.00 to 6.00.
With `CCCCN(C)C(=O)c1cc2c(Cc3cccc(Cl)c3)n[nH]c2cc1O` [Compound A39, 5-(N-Butyl-N-methylaminocarbonyl)-3-(3-chlorobenzyl)-6-hydroxy-1H-indazole], the negative logarithm of the IC50 (pIC50) was 6.00 to 8.00.
`CN(Cc1ccccc1)C(=O)c1cc2c(Cc3cccc(Cl)c3)n[nH]c2cc1O` [Compound A40, 5-(N-Benzyl-N-methylaminocarbonyl)-3-(3-chlorobenzyl)-6-hydroxy-1H-indazole]: the negative-log IC50 (pIC50) was 6.00 to 8.00.
As to `COCCN(C)C(=O)c1cc2c(Cc3cccc(Cl)c3)n[nH]c2cc1O` [Compound A41, 5-[N-(2-Methoxyethyl)-N-methylaminocarbonyl]-3-(3-chlorobenzyl)-6-hydroxy-1H-indazole], the negative logarithm of the IC50 (pIC50) was 5.00 to 6.00.
As to `CCCN(C)C(=O)c1cc2c(Cc3cccc(Cl)c3)n[nH]c2cc1O` [Compound A42, 5-(N-Propyl-N-methylaminocarbonyl)-3-(3-chlorobenzyl)-6-hydroxy-1H-indazole], the pIC50 is 6.00 to 8.00.
Turning to `CCCCN(C)C(=O)c1cc2c(Cc3ccccc3C)n[nH]c2cc1O` [Compound A43, 5-(N-Butyl-N-methylaminocarbonyl)-3-(2-methylbenzyl)-6-hydroxy-1H-indazole], the negative logarithm of the IC50 (pIC50) is 5.00 to 6.00.
The figure for `Cc1ccccc1Cc1n[nH]c2cc(O)c(C(=O)N(C)Cc3ccccc3)cc12` [Compound A44, 5-(N-Benzyl-N-methylaminocarbonyl)-3-(2-methylbenzyl)-6-hydroxy-1H-indazole] is 5.00 to 6.00.
As for `COCCN(C)C(=O)c1cc2c(Cc3ccccc3C)n[nH]c2cc1O` [Compound A45], the figure is below 5.00; as for `CCCN(C)C(=O)c1cc2c(Cc3cc(C)cc(F)c3)n[nH]c2cc1O` [Compound A52, 5-(N-Propyl-N-methylaminocarbonyl)-3-(3-fluoro-5-methylbenzyl)-6-hydroxy-1H-indazole], 5.00 to 6.00; as for `CCCCN(C)C(=O)c1cc2c(Cc3ccc(C)cc3)n[nH]c2cc1O` [Compound A64, 5-(N-Butyl-N-methylaminocarbonyl)-3-(4-methylbenzyl)-6-hydroxy-1H-indazole], 5.00 to 6.00.
In the case of `CCc1ccc(Cc2n[nH]c3cc(O)c(C(=O)N(C)Cc4ccccc4)cc23)cc1` [Compound A71, 5-(N-Benzyl-N-methylaminocarbonyl)-3-(4-ethylbenzyl)-6-hydroxy-1H-indazole], the pIC50 was 5.00 to 6.00.
Regarding `CCCN(C)C(=O)c1cc2c(Cc3ccc(C)c(C)c3)n[nH]c2cc1O` [Compound A73, 5-(N-Propyl-N-methylaminocarbonyl)-3-(3,4-dimethylbenzyl)-6-hydroxy-1H-indazole], the negative logarithm of the IC50 (pIC50) is 5.00 to 6.00.
As to `Cc1cccc(Cc2n[nH]c3cc(O)c(C(=O)N(C)Cc4ccc5c(c4)OCCO5)cc23)c1` [Compound A101, 5-[N-(2,3-Dihydrobenzo-1,4-dioxin-6-ylmethyl)-N-methylaminocarbonyl]-3-(3-methylbenzyl)-6-hydroxy-1H-indazole], the pIC50 was 6.00 to 8.00.
`Cc1ccc(Cc2n[nH]c3cc(O)c(C(=O)N(C)c4ccccc4)cc23)cc1` [Compound A122, 5-(N-Phenyl-N-methylaminocarbonyl)-3-(4-methylbenzyl)-6-hydroxy-1H-indazole]: the pIC50 was 6.00 to 8.00.
Take `COc1ccc(N(C)C(=O)c2cc3c(Cc4cccc(C)c4)n[nH]c3cc2O)cc1OC` [Compound A145, 5-[N-(3,4-Dimethoxyphenyl)-N-methylaminocarbonyl]-3-(3-methylbenzyl)-6-hydroxy-1H-indazole]: the pIC50 is 6.00 to 8.00.
Regarding `Cc1cccc(Cc2n[nH]c3cc(O)c(C(=O)N(C)c4cccc(OC(F)(F)F)c4)cc23)c1` [Compound A154, 5-[N-(3-Trifluoromethoxyphenyl)-N-methylaminocarbonyl]-3-(3-methylbenzyl)-6-hydroxy-1H-indazole], the pIC50 was 6.00 to 8.00.
For the compound `CC(=O)N1CCc2cc(N(C)C(=O)c3cc4c(Cc5cccc(C)c5)n[nH]c4cc3O)ccc21` [Compound A157, 5-[N-(1-Acetyl-2,3-dihydro-1H-indol-5-yl)-N-methylaminocarbonyl]-3-(3-methylbenzyl)-6-hydroxy-1H-indazole], the negative-log IC50 (pIC50) is 6.00 to 8.00.
The figure for `COc1ccc(N(C)C(=O)c2cc3c(Cc4cccc(OC)c4)n[nH]c3cc2O)cc1` [Compound A160, 5-[N-(4-Methoxyphenyl)-N-methylaminocarbonyl]-3-(3-methoxybenzyl)-6-hydroxy-1H-indazole] is 6.00 to 8.00; for `COc1cccc(Cc2n[nH]c3cc(O)c(C(=O)N(C)c4ccc(CNS(C)(=O)=O)cc4)cc23)c1` [Compound A162, 5-[N-(4-Methylsulfonylaminomethylphenyl)-N-methylaminocarbonyl]-3-(3-methoxybenzyl)-6-hydroxy-1H-indazole] it is 6.00 to 8.00.
For `CCCc1n[nH]c2cc(O)c(C(=O)N(C)c3ccc(OC)c(OC)c3)cc12` [Compound A174, 5-[N-(3,4-Dimethoxyphenyl)-N-methylaminocarbonyl]-3-propyl-6-hydroxy-1H-indazole], the pIC50 was 6.00 to 8.00.
`CCCc1n[nH]c2cc(O)c(C(=O)N(C)c3ccc4c(c3)OCO4)cc12` [Compound A175, 5-[N-(Benzo-1,3-dioxol-5-yl)-N-methylaminocarbonyl]-3-propyl-6-hydroxy-1H-indazole]: the negative logarithm of the IC50 (pIC50) is 6.00 to 8.00.
Regarding `CCCc1n[nH]c2cc(O)c(C(=O)N(C)c3ccc(CNS(C)(=O)=O)cc3)cc12` [Compound A177, 5-[N-(4-Methylsulfonylaminomethylphenyl)-N-methylaminocarbonyl]-3-propyl-6-hydroxy-1H-indazole], the pIC50 is 6.00 to 8.00.
For the compound `CCCc1n[nH]c2cc(O)c(C(=O)N(C)Cc3ccccc3)cc12` [Compound A178, 5-(N-Benzyl-N-methylaminocarbonyl)-3-propyl-6-hydroxy-1H-indazole], the negative logarithm of the IC50 (pIC50) is 6.00 to 8.00.
As for `CN(Cc1ccccc1)C(=O)c1cc2c(CCc3ccccc3)n[nH]c2cc1O` [Compound A181, 5-(N-Benzyl-N-methylaminocarbonyl)-3-phenethyl-6-hydroxy-1H-indazole], the pIC50 was 6.00 to 8.00.
As for `CCCN(C)C(=O)c1cc2c(CCc3ccccc3)n[nH]c2cc1O` [Compound A182, 5-(N-Propyl-N-methylaminocarbonyl)-3-phenethyl-6-hydroxy-1H-indazole], the pIC50 is 5.00 to 6.00.
Turning to `COc1cc(N(C)C(=O)c2cc3c(Cc4cccc(C)c4)n[nH]c3cc2O)ccc1N1CCN(C)CC1` [Compound A190, 5-{N-[3-Methoxy-4-(4-methylpiperazin-1-yl)phenyl]-N-methylaminocarbonyl}-3-(3-methylbenzyl)-6-hydroxy-1H-indazole], the negative logarithm of the IC50 (pIC50) was 6.00 to 8.00.
In the case of `Cc1cccc(Cc2n[nH]c3cc(O)c(C(=O)N(C)c4ccc(CN5CCOCC5)cc4)cc23)c1` [Compound A191, 5-[N-(4-Morpholin-4-ylmethylphenyl)-N-methylaminocarbonyl]-3-(3-methylbenzyl)-6-hydroxy-1H-indazole], the pIC50 is 6.00 to 8.00.
Turning to `Cc1cccc(Cc2n[nH]c3cc(O)c(C(=O)N(C)C4CCCCC4)cc23)c1` [Compound A195, 5-(N-Cyclohexyl-N-methylaminocarbonyl)-3-(3-methylbenzyl)-6-hydroxy-1H-indazole], the negative-log IC50 (pIC50) is 5.00 to 6.00.
On to `Cc1ccc(N(C)C(=O)c2cc3c(CC4CCCC4)n[nH]c3cc2O)cc1` [Compound A256, 5-[N-(4-Methylphenyl)-N-methylaminocarbonyl]-3-cyclopentylmethyl-6-hydroxy-1H-indazole], for which the pIC50 is 6.00 to 8.00.
The figure for `COc1cccc(N(C)C(=O)c2cc3c(CC4CCCC4)n[nH]c3cc2O)c1` [Compound A257, 5-[N-(3-Methoxyphenyl)-N-methylaminocarbonyl]-3-cyclopentylmethyl-6-hydroxy-1H-indazole] is 6.00 to 8.00.
On to `CN(C(=O)c1cc2c(CC3CCCC3)n[nH]c2cc1O)c1ccc2c(c1)OCO2` [Compound A260, 5-[N-(Benzo-1,3-dioxol-5-yl)-N-methylaminocarbonyl]-3-cyclopentylmethyl-6-hydroxy-1H-indazole], for which the pIC50 was 6.00 to 8.00.
